Data on eight compounds can be found in patent US10670605B2, “Cysteine reactive probes and uses thereof” (The Scripps Research Institute, priority 2015, dated 2020).

Experiment in all cases: Competitive isoTOP-ABPP, cell lysates
Format in all cases: binding

The target of one assay is T1, UBE2S C118 (Q16763) (Homo sapiens, UniProt Q16763).
T1 sequence (Q16763 1-222): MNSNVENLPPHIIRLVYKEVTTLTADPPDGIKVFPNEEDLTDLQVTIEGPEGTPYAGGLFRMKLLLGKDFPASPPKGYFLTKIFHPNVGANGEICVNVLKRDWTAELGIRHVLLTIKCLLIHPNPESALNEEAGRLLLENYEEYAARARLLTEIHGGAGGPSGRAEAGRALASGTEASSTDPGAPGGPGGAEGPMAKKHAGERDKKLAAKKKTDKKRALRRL
Particulars: for R value (DMSO/fragment): 500 μM.

A further assay concerns the target T2, ACAT1 C119 (P24752) (Homo sapiens, UniProt P24752).
T2 sequence (P24752 34-427): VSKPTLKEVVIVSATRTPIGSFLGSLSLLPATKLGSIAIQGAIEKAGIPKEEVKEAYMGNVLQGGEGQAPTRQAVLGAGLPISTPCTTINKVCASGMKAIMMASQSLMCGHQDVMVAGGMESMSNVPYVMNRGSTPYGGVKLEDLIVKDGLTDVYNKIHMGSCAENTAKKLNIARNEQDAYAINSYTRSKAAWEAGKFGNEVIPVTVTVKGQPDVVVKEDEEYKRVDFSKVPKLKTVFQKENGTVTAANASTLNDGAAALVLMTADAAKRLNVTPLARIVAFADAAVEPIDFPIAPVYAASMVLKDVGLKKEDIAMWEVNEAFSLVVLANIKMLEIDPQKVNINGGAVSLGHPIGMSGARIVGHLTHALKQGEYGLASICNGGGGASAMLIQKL
Particulars: for R value (DMSO/fragment) / isoTOP-ABPP ratio P24752_C119: 500 μM; for isoTOP-ABPP ratio P24752_C119: 231.

The next assay has as its target T3, ACAT1 C413 (P24752) (Homo sapiens, UniProt P24752).
T3 sequence (P24752 34-427): T2 sequence (P24752 34-427)
Particulars: for isoTOP-ABPP ratio P24752_C413: invitro, 231.

Another assay has as its target T4, ACAT1 C126 (P24752) (Homo sapiens, UniProt P24752).
T4 sequence (P24752 34-427): T2 sequence (P24752 34-427)
Particulars: for isoTOP-ABPP ratio, P24752_C126: invitro, 231.

The next assay addresses T5, IDH2 C308 (P48735) (Homo sapiens, UniProt P48735).
T5 sequence (P48735 40-452): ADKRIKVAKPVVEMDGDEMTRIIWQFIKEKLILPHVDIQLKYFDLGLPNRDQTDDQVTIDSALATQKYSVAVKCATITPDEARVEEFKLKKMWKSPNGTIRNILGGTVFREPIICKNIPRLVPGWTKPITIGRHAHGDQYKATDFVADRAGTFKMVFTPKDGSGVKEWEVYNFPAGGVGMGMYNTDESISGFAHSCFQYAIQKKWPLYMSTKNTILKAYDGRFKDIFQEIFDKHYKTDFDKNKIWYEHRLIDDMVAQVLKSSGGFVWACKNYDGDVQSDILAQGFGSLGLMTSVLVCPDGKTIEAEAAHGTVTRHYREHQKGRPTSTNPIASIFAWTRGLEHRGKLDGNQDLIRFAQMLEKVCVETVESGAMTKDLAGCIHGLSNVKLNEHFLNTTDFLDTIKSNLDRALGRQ
As to conditions: 500 μM, in vitro, MDA-MB-231.

For a further assay, the target named is T6, IRF4 C194 (Q15306) (Homo sapiens, UniProt Q15306).
T6 sequence (Q15306 1-451): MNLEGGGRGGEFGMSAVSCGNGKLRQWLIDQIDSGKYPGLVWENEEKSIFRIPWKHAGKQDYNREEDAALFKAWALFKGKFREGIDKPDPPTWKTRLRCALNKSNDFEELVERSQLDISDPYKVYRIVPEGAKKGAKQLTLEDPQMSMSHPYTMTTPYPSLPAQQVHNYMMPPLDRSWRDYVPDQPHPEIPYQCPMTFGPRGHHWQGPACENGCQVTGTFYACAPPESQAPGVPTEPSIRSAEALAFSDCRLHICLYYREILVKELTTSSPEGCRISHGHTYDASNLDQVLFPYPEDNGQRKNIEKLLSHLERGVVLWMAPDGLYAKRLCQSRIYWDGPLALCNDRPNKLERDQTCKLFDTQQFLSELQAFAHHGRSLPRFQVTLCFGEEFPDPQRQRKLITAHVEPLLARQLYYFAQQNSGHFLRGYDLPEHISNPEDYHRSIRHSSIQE
As to conditions: 500 μm in-vitro ramos.

Take `O=C(CCl)NC1C(O)OC(CO)C(O)C1O` (mixture of isomers) [compound 44]: the “isoTOP-ABPP reactivity profile ratio, Q16763_C118” value on UBE2S C118 (Q16763) (500 μm, in-vitro_ramos_231) turned out to be 0.8. Also, the “isoTOP-ABPP reactivity profile ratio, P24752_C119” value at ACAT1 C119 (P24752) (500 μm, in-vitro_ramos_231) turned out to be 0.8. Moreover, the “isoTOP-ABPP reactivity profile ratio, P24752_C413” value at ACAT1 C413 (P24752) (500 μm, in-vitro_ramos_231) turned out to be 0.8. Besides, the “isoTOP-ABPP reactivity profile ratio, P24752_C126” value at ACAT1 C126 (P24752) (500 μm, in-vitro_ramos_231) is listed as 0.8.

As to `COc1ccc2c(c1)CCCN2C(=O)CCl` [compound 2], the “R value (DMSO/fragment)” value on IDH2 C308 (P48735) came out at 1.4; at UBE2S C118 (Q16763) (in vitro, MDA-MB-231) it was 4.2; at UBE2S C118 (Q16763) (invitro, ramos), 6.9; on ACAT1 C119 (P24752) (in vitro, MDA-MB-231), 3.9; at ACAT1 C119 (P24752) (invitro, ramos), 3.2; at ACAT1 C413 (P24752) (500 μM, in vitro, MDA-MB-231), 18.1. Besides, on ACAT1 C126 (P24752) (500 μM, in vitro, MDA-MB-231), the “R value (DMSO/fragment)” value is given as 20.0.

Take `CNS(=O)(=O)C=Cc1ccc2c(ccn2Cc2ccccc2)c1` [compound 6]: the “isoTOP-ABPP ratio P24752_C119” value at ACAT1 C119 (P24752) (invitro) is reported as 1.1. Further, the “isoTOP-ABPP ratio P24752_C413” value at ACAT1 C413 (P24752) (500 μM) was 1.1. Besides, the “isoTOP-ABPP ratio, P24752_C126” value on ACAT1 C126 (P24752) (500 μM) is listed as 0.9.

Take `C=CC(=O)N(Cc1cccnc1)c1ccc(Oc2ccccc2)c(C(F)(F)F)c1` [compound 15]: the “isoTOP-ABPP ratio (reactivity profile), Q15306_C194” value (shortened to “isoTOP-ABPP ratio … Q15306_C194”) on IRF4 C194 (Q15306) is given as 2.2. For the same compound, the “isoTOP-ABPP ratio (reactivity profile), Q16763_C118” value (shortened to “isoTOP-ABPP ratio … Q16763_C118”) at UBE2S C118 (Q16763) (500 μm in-vitro ramos) was 1.2. The “isoTOP-ABPP ratio P24752_C119” value at ACAT1 C119 (P24752) (invitro) came out at 1.0. On ACAT1 C119 (P24752) (500 μm in-vitro ramos), the “isoTOP-ABPP ratio (reactivity profile), P24752_C119” value was 1.2. Moreover, the “isoTOP-ABPP ratio P24752_C413” value on ACAT1 C413 (P24752) (500 μM) worked out at 1.2. Also, at ACAT1 C413 (P24752) (500 μm in-vitro ramos), the “isoTOP-ABPP ratio (reactivity profile), P24752_C413” value came out at 0.9. Also, the “isoTOP-ABPP ratio, P24752_C126” value on ACAT1 C126 (P24752) (500 μM) turned out to be 0.8.

With `O=C(CCl)N1CCOCC1` [compound 22], the “isoTOP-ABPP ratio … Q15306_C194” value at IRF4 C194 (Q15306) is listed as 1.1. Also, at UBE2S C118 (Q16763) (500 μm in-vitro ramos), the “isoTOP-ABPP ratio … Q16763_C118” value was found to be 0.9. For the same compound, the “isoTOP-ABPP ratio (reactivity profile), P24752_C119” value on ACAT1 C119 (P24752) (500 μm in-vitro ramos) is 0.8; at ACAT1 C119 (P24752) (500 μm in-vitro ramos_231) it was 1.0. In addition, the “isoTOP-ABPP ratio (reactivity profile), P24752_C413” value at ACAT1 C413 (P24752) (500 μm in-vitro ramos) and at ACAT1 C413 (P24752) (500 μm in-vitro ramos_231) was 1.1 each time. The “isoTOP-ABPP ratio (reactivity profile), P24752_C126” value on ACAT1 C126 (P24752) (500 μm in-vitro ramos) came out at 1.7; at ACAT1 C126 (P24752) (500 μm in-vitro ramos_231), 2.4.

Consider `N#C/C(=C\c1cc(C(F)(F)F)cc(C(F)(F)F)c1)C(N)=O` [compound 23], for which the “isoTOP-ABPP ratio … Q15306_C194” value on IRF4 C194 (Q15306) worked out at 1.9. For the same compound, the figures for the “isoTOP-ABPP ratio … Q16763_C118” value at UBE2S C118 (Q16763) (500 μm in-vitro ramos) and at UBE2S C118 (Q16763) (500 μm in-vitro ramos_231) were 2.4 and 1.6, respectively. Moreover, the “isoTOP-ABPP ratio (reactivity profile), P24752_C119” value on ACAT1 C119 (P24752) (500 μm in-vitro ramos) turned out to be 2.0; on ACAT1 C119 (P24752) (500 μm in-vitro ramos_231) it was 1.7. For the same compound, the “isoTOP-ABPP ratio (reactivity profile), P24752_C413” value at ACAT1 C413 (P24752) (500 μm in-vitro ramos) was found to be 1.2; on ACAT1 C413 (P24752) (500 μm in-vitro ramos_231) it was 1.1. Moreover, the “isoTOP-ABPP ratio (reactivity profile), P24752_C126” value at ACAT1 C126 (P24752) (500 μm in-vitro ramos) and on ACAT1 C126 (P24752) (500 μm in-vitro ramos_231) was 0.8 throughout.

In the case of `CC(Br)C(=O)Nc1cc(C(F)(F)F)cc(C(F)(F)F)c1` (stereo not drawn) [compound 24], the “isoTOP-ABPP ratio … Q15306_C194” value at IRF4 C194 (Q15306) came out at 1.9. Further, the “isoTOP-ABPP ratio … Q16763_C118” value at UBE2S C118 (Q16763) (500 μm in-vitro ramos) came out at 1.2. In addition, the “isoTOP-ABPP ratio (reactivity profile), P24752_C119” value on ACAT1 C119 (P24752) (500 μm in-vitro ramos) is 1.3. Further, the “isoTOP-ABPP ratio (reactivity profile), P24752_C413” value at ACAT1 C413 (P24752) (500 μm in-vitro ramos) was found to be 1.2. Besides, on ACAT1 C126 (P24752) (500 μm in-vitro ramos), the “isoTOP-ABPP ratio (reactivity profile), P24752_C126” value is on record as 1.1.

For `O=C(/C=C/c1ccccc1)Nc1cc(C(F)(F)F)cc(C(F)(F)F)c1` [compound 26], at IRF4 C194 (Q15306), the “isoTOP-ABPP ratio … Q15306_C194” value turned out to be 1.1. Moreover, the “isoTOP-ABPP ratio … Q16763_C118” value at UBE2S C118 (Q16763) (500 μm in-vitro ramos) amounted to 0.9. Moreover, the “isoTOP-ABPP ratio (reactivity profile), P24752_C119” value at ACAT1 C119 (P24752) (500 μm in-vitro ramos) turned out to be 1.0. At ACAT1 C413 (P24752) (500 μm in-vitro ramos), the “isoTOP-ABPP ratio (reactivity profile), P24752_C413” value was determined as 0.9. The “isoTOP-ABPP ratio (reactivity profile), P24752_C126” value at ACAT1 C126 (P24752) (500 μm in-vitro ramos) is recorded as 0.9.
